The text below walks through data of PubChem BioAssay AID1259407 (Chemical Carcinogenesis Research Information System (CCRIS), 2018).

This data set has as its system CCRIS mutagenicity, Ames/micronucleus/aberration tests. Nature of the data set: CCRIS mutagenicity studies.
[1] abbreviates: Test System: AMES SALMONELLA TYPHIMURIUM, Strain/Indicator: TA98, Metabolic Activation: NONE, Method: STANDARD PLATE.
The mark [2] stands for this setting: Test System: AMES SALMONELLA TYPHIMURIUM, Strain/Indicator: TA100, Metabolic Activation: NONE, Method: STANDARD PLATE.
Setting [3] is: Test System: AMES SALMONELLA TYPHIMURIUM, Strain/Indicator: TA98, Metabolic Activation: HAMSTER, LIVER, S-9, AROCLOR 1254, Method: PREINCUBATION
Setting [4] is: Test System: AMES SALMONELLA TYPHIMURIUM, Strain/Indicator: TA98, Metabolic Activation: NONE, Method: PREINCUBATION
Setting [5] is: Test System: AMES SALMONELLA TYPHIMURIUM, Strain/Indicator: TA98, Metabolic Activation: RAT, LIVER, S-9, AROCLOR 1254, Method: PREINCUBATION
Where [6] appears, read: Test System: AMES SALMONELLA TYPHIMURIUM, Strain/Indicator: TA100, Metabolic Activation: HAMSTER, LIVER, S-9, AROCLOR 1254, Method: PREINCUBATION
Setting [7] is: Test System: AMES SALMONELLA TYPHIMURIUM, Strain/Indicator: TA100, Metabolic Activation: NONE, Method: PREINCUBATION
[8] abbreviates: Test System: AMES SALMONELLA TYPHIMURIUM, Strain/Indicator: TA100, Metabolic Activation: RAT, LIVER, S-9, AROCLOR 1254, Method: PREINCUBATION
Where [9] appears, read: Test System: AMES SALMONELLA TYPHIMURIUM, Strain/Indicator: TA1535, Metabolic Activation: HAMSTER, LIVER, S-9, AROCLOR 1254, Method: PREINCUBATION
The mark [10] stands for this setting: Test System: AMES SALMONELLA TYPHIMURIUM, Strain/Indicator: TA1535, Metabolic Activation: NONE, Method: PREINCUBATION
The mark [11] stands for this setting: Test System: AMES SALMONELLA TYPHIMURIUM, Strain/Indicator: TA1535, Metabolic Activation: RAT, LIVER, S-9, AROCLOR 1254, Method: PREINCUBATION
The mark [12] stands for this setting: Test System: AMES SALMONELLA TYPHIMURIUM, Strain/Indicator: TA1537, Metabolic Activation: HAMSTER, LIVER, S-9, AROCLOR 1254, Method: PREINCUBATION
Setting [13] is: Test System: AMES SALMONELLA TYPHIMURIUM, Strain/Indicator: TA1537, Metabolic Activation: NONE, Method: PREINCUBATION
[14] abbreviates: Test System: AMES SALMONELLA TYPHIMURIUM, Strain/Indicator: TA1537, Metabolic Activation: RAT, LIVER, S-9, AROCLOR 1254, Method: PREINCUBATION
The mark [15] stands for this setting: Test System: AMES SALMONELLA TYPHIMURIUM, Strain/Indicator: TA98, Metabolic Activation: RAT, LIVER, S-9, AROCLOR 1254, Method: STANDARD PLATE.
Setting [16] is: Test System: AMES SALMONELLA TYPHIMURIUM, Strain/Indicator: TA100, Metabolic Activation: RAT, LIVER, S-9, AROCLOR 1254, Method: STANDARD PLATE.

Molecules are shown by their SMILES. The source made the active and inactive calls. The rule behind the calls is not given here.

In the case of `c1ccc2sncc2c1`, the mutagenic call reads like this: under setting [1], “inactive; negative”; (Test System: AMES SALMONELLA TYPHIMURIUM, Strain/Indicator: TA98, Metabolic Activation: S-9, Method: STANDARD PLATE) “inactive; negative”; under setting [2], “inactive; negative”; (Test System: AMES SALMONELLA TYPHIMURIUM, Strain/Indicator: TA100, Metabolic Activation: S-9, Method: STANDARD PLATE) “inactive; negative”; (Test System: AMES SALMONELLA TYPHIMURIUM, Strain/Indicator: TA1535, Metabolic Activation: NONE, Method: STANDARD PLATE) “inactive; negative”; (Test System: AMES SALMONELLA TYPHIMURIUM, Strain/Indicator: TA1535, Metabolic Activation: S-9, Method: STANDARD PLATE) “inactive; negative”. In addition, the mutagenic call is “inactive; negative” (Test System: AMES SALMONELLA TYPHIMURIUM, Strain/Indicator: TA1537, Metabolic Activation: NONE, Method: STANDARD PLATE) and “inactive; negative” (Test System: AMES SALMONELLA TYPHIMURIUM, Strain/Indicator: TA1537, Metabolic Activation: S-9, Method: STANDARD PLATE).
As for `C=CCOC(=O)c1ccccc1C(=O)OCC=C`, the mutagenic call by setting is: (End Point: IN VITRO CHROMOSOMAL ABERRATIONS, Test System: CHO CELLS, Metabolic Activation: RAT, LIVER, S-9, AROCLOR 1254) “active; positive; weak response”; under setting [3], “inactive; negative”; under setting [4], “inactive; negative”; (Test System: AMES SALMONELLA TYPHIMURIUM, Strain/Indicator: TA98, Metabolic Activation: RAT LIVER S-9, PHENOBARBITAL AND BETA-NAPHTHOFLAVONE, Method: PREINCUBATION) “inactive; negative”; under setting [5], “inactive; negative”; under setting [6], “inactive; negative”. For the same molecule, the mutagenic call runs as follows: under setting [7], “inactive; negative”; (Test System: AMES SALMONELLA TYPHIMURIUM, Strain/Indicator: TA100, Metabolic Activation: RAT LIVER S-9, PHENOBARBITAL AND BETA-NAPHTHOFLAVONE, Method: PREINCUBATION) “inactive; negative”; under setting [8], “inactive; negative”; under setting [9], “inactive; negative”; under setting [10], “inactive; negative”; (Test System: AMES SALMONELLA TYPHIMURIUM, Strain/Indicator: TA1535, Metabolic Activation: RAT LIVER S-9, PHENOBARBITAL AND BETA-NAPHTHOFLAVONE, Method: PREINCUBATION) “inactive; negative”. For the same molecule, the mutagenic call runs as follows: under setting [11], “inactive; negative”; under setting [12], “inactive; negative”; under setting [13], “inactive; negative”; (Test System: AMES SALMONELLA TYPHIMURIUM, Strain/Indicator: TA1537, Metabolic Activation: RAT LIVER S-9, PHENOBARBITAL AND BETA-NAPHTHOFLAVONE, Method: PREINCUBATION) “inactive; negative”; under setting [14], “inactive; negative”; (Test System: E.COLI, Strain/Indicator: WP2UVRA/PKM101, Metabolic Activation: NONE, Method: PREINCUBATION) “inactive; negative”. In addition, the mutagenic call (Test System: E.COLI, Strain/Indicator: WP2UVRA/PKM101, Metabolic Activation: RAT LIVER S-9, PHENOBARBITAL AND BETA-NAPHTHOFLAVONE, Method: PREINCUBATION) is “inactive; negative”.
With `C1CN1c1nc(N2CC2)nc(N2CC2)n1`, the mutagenic call is “active; positive” under setting [1]; “active; positive” under setting [2]; “active; positive” (Test System: CHINESE HAMSTER V-79, Strain/Indicator: V-79/6-THIOGUANINE, Metabolic Activation: NONE, Method: FLASK ASSAY); “active; positive” (Test System: E. COLI, Strain/Indicator: WP2 (HCR), Metabolic Activation: NONE, Method: STANDARD PLATE).
For `CCC(=O)C(=O)CC`, the mutagenic call under setting [2] was “active; positive”.
Consider `O=C(CO)N(O)c1ccc(Cl)cc1`, for which the mutagenic call is “inactive; negative” under setting [1], “inactive; negative” under setting [15], “inactive; negative” under setting [2] and “inactive; negative” under setting [16].
For the molecule `C1COCOC1`, the mutagenic call runs as follows: under setting [3], “inactive; negative”; under setting [4], “inactive; negative”; under setting [5], “inactive; negative”; under setting [6], “inactive; negative”; under setting [7], “inactive; negative”; under setting [8], “inactive; negative”. The mutagenic call under setting [9] is “inactive; negative”; the mutagenic call under setting [10] was “inactive; negative”; the mutagenic call under setting [11] is “inactive; negative”; the mutagenic call under setting [12] is “inactive; negative”; the mutagenic call under setting [13] is “inactive; negative”; the mutagenic call under setting [14] is “inactive; negative”.
As to `CCSC(=O)N1CCCCCC1`, the mutagenic call runs as follows: (Test System: AMES SALMONELLA TYPHIMURIUM, Strain/Indicator: TA98, Metabolic Activation: NONE) “inactive; negative”; (Test System: AMES SALMONELLA TYPHIMURIUM, Strain/Indicator: TA98, Metabolic Activation: RAT, LIVER, S-9, AROCLOR 1254) “inactive; negative”; (Test System: AMES SALMONELLA TYPHIMURIUM, Strain/Indicator: TA100, Metabolic Activation: NONE) “inactive; negative”; (Test System: AMES SALMONELLA TYPHIMURIUM, Strain/Indicator: TA100, Metabolic Activation: RAT, LIVER, S-9, AROCLOR 1254) “inactive; negative”; (Test System: AMES SALMONELLA TYPHIMURIUM, Strain/Indicator: TA102, Metabolic Activation: NONE) “inactive; negative”; (Test System: AMES SALMONELLA TYPHIMURIUM, Strain/Indicator: TA102, Metabolic Activation: RAT, LIVER, S-9, AROCLOR 1254) “inactive; negative”. Besides, the mutagenic call was “inactive; negative” (Test System: AMES SALMONELLA TYPHIMURIUM, Strain/Indicator: TA1535, Metabolic Activation: NONE); “inactive; negative” (Test System: AMES SALMONELLA TYPHIMURIUM, Strain/Indicator: TA1535, Metabolic Activation: RAT, LIVER, S-9, AROCLOR 1254); “inactive; negative” (Test System: AMES SALMONELLA TYPHIMURIUM, Strain/Indicator: TA1537, Metabolic Activation: NONE); “inactive; negative” (Test System: AMES SALMONELLA TYPHIMURIUM, Strain/Indicator: TA1537, Metabolic Activation: RAT, LIVER, S-9, AROCLOR 1254).
Regarding `Oc1ccc(ON2P(Oc3ccc(O)cc3)N=P(Oc3ccc(O)cc3)(Oc3ccc(O)cc3)N(Oc3ccc(O)cc3)P2Oc2ccc(O)cc2)cc1` (centres undefined), the mutagenic call is, setting by setting: under setting [1], “inactive; negative”; under setting [15], “inactive; negative”; under setting [2], “inactive; negative”; under setting [16], “inactive; negative”.
Turning to `Cc1cccc(C)c1NO`, the mutagenic call runs as follows: under setting [7], “active; positive”; (Test System: AMES SALMONELLA TYPHIMURIUM, Strain/Indicator: TA100, Metabolic Activation: RAT, LIVER, S-9, PCB, Method: PREINCUBATION) “active; positive”.
